{"source": "ChEMBL document CHEMBL4706581", "about": "“Discovery of methoxy-naphthyl linked N-(1-benzylpiperidine) benzamide as a blood-brain permeable dual inhibitor of acetylcholinesterase and butyrylcholinesterase” (Eur J Med Chem, 2020)", "key": {"Acetylcholinesterase [1]": {"molecular_target": "Acetylcholinesterase (Electrophorus electricus, UniProt O42275)", "sequence (O42275 whole entry)": "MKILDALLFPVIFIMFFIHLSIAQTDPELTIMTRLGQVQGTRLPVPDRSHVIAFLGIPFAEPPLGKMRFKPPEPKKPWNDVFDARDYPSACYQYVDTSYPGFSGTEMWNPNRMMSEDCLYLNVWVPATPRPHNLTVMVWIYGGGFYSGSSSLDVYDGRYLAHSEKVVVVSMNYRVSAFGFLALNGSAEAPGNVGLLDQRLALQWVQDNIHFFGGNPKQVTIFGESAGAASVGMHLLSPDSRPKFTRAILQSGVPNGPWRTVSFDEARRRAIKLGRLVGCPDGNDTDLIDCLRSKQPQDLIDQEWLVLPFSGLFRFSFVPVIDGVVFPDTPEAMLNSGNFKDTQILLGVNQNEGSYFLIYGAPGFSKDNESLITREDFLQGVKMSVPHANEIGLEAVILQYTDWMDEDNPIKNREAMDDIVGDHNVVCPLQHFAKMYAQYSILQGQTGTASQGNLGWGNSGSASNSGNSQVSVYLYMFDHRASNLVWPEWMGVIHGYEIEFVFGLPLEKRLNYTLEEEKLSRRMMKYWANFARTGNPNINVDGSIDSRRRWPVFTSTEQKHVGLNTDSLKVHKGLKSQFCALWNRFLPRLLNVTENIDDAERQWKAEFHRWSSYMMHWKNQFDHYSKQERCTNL", "assay": "Inhibition of electric eel AChE using acetylthiocholine iodide as substrate preincubated for 20 mins followed by substrate addition and measured every minute for 10 mins by DTNB-reagent based Ellman's method"}, "Cholinesterase [2]": {"molecular_target": "T1, Cholinesterase (Equus caballus, UniProt P81908)", "T1 sequence (P81908 whole entry)": "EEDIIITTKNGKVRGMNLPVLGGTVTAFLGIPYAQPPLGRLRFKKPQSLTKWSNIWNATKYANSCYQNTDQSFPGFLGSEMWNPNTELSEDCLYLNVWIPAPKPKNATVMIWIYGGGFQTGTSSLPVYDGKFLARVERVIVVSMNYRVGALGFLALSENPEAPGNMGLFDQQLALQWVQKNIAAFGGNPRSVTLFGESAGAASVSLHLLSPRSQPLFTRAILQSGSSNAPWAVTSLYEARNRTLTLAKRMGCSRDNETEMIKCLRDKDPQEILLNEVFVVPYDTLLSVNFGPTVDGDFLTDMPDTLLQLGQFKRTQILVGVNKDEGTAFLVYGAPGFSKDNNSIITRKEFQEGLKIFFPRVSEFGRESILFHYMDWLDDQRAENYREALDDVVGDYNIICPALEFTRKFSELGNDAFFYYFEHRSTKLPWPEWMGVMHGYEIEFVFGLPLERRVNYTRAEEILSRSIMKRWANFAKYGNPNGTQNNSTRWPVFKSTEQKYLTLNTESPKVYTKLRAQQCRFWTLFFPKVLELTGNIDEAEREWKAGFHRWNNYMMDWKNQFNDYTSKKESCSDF", "assay": "Inhibition of equine serum BChE using S-butyrylthiocholine iodide as substrate preincubated for 20 mins followed by substrate addition and measured every minute for 10 mins by DTNB-reagent based Ellman's method"}, "[3]": {"assay": "Effective permeability of compound by PAMPA-BBB assay", "format": "ADME", "settings": "read-out: Peff"}, "Acetylcholinesterase [4]": {"molecular_target": "T2, Acetylcholinesterase (Homo sapiens, UniProt P22303)", "T2 sequence (P22303 whole entry)": "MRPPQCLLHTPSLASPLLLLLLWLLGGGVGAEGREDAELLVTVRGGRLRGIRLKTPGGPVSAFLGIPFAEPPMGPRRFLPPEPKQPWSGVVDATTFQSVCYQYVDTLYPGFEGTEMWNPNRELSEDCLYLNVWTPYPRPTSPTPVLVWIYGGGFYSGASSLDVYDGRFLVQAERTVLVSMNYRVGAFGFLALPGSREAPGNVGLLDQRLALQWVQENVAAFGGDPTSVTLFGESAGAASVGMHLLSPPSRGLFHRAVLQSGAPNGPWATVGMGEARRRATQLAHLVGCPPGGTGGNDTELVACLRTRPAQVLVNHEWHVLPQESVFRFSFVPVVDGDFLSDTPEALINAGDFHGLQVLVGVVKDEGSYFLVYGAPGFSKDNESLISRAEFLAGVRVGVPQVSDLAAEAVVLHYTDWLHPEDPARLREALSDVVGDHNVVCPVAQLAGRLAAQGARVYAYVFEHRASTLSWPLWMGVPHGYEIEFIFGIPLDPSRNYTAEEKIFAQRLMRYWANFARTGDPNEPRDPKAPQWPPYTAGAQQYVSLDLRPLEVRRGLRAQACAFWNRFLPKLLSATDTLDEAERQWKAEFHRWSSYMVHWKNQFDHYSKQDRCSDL", "assay": "Non-competitive inhibition of recombinant human AChE assessed as decrease in Vmax with constant Km using varying level of acetylthiocholine iodide as substrate preincubated for 20 mins followed by substrate addition and measured every minute for 10 mins by Lineweaver-Burk plot analysis"}, "Cholinesterase [5]": {"molecular_target": "T1, Cholinesterase", "assay": "Mixed type inhibition of equine serum BChE assessed as decrease in Vmax and increase in Km using varying level of S-butyrylthiocholine iodide as substrate preincubated for 20 mins followed by substrate addition and measured every minute for 10 mins by Lineweaver-Burk plot analysis"}, "Rattus norvegicus": {"organism": "Rattus norvegicus", "assay": "Inhibition of rat self-induced Amyloid beta (1 to 42 residues) aggregation at 10 uM incubated for 24 hrs by thioflavin-T fluorescence assay relative to control"}, "Acetylcholinesterase [6]": {"molecular_target": "T2, Acetylcholinesterase", "assay": "Inhibition of recombinant human AChE"}}, "data": [{"smiles": "N#Cc1ccc(C(=O)Nc2cc[n+](Cc3ccccc3)cc2)cc1", "values": [{"measurement": "IC50", "setting": "Acetylcholinesterase [1]", "result": 469, "unit": "nM"}]}, {"smiles": "COc1ccc2cc(C(=O)Nc3cc[n+](Cc4ccccc4C)cc3)ccc2c1", "values": [{"measurement": "IC50", "setting": "Acetylcholinesterase [1]", "result": 435, "unit": "nM"}, {"measurement": "IC50", "setting": "Cholinesterase [2]", "result": "> 1000", "unit": "nM"}]}, {"smiles": "COc1ccc2cc(C(=O)NCCc3cc[n+](Cc4cccc(Cl)c4)cc3)ccc2c1", "values": [{"measurement": "IC50", "setting": "Acetylcholinesterase [1]", "result": 610, "unit": "nM"}, {"measurement": "IC50", "setting": "Cholinesterase [2]", "result": "> 1000", "unit": "nM"}]}, {"smiles": "CC(C)c1ccc(C(=O)Nc2cc[n+](Cc3ccccc3)cc2)cc1", "values": [{"measurement": "IC50", "setting": "Acetylcholinesterase [1]", "result": 852, "unit": "nM"}]}, {"smiles": "COc1ccc2cc(C(=O)Nc3cc[n+](Cc4ccccc4Cl)cc3)ccc2c1", "values": [{"measurement": "IC50", "setting": "Acetylcholinesterase [1]", "result": 340, "unit": "nM"}, {"measurement": "IC50", "setting": "Cholinesterase [2]", "result": "> 1000", "unit": "nM"}]}, {"smiles": "COc1ccc2cc(C(=O)NCCc3cc[n+](Cc4ccccc4F)cc3)ccc2c1", "values": [{"measurement": "IC50", "setting": "Acetylcholinesterase [1]", "result": 280, "unit": "nM"}, {"measurement": "IC50", "setting": "Cholinesterase [2]", "result": "> 1000", "unit": "nM"}]}, {"smiles": "COc1ccc2cc(C(=O)NCCC3CCN(Cc4ccccc4)CC3)ccc2c1", "values": [{"measurement": "Papp", "setting": "[3]", "result": 6.9, "unit": "×10⁻⁶ cm/s"}, {"measurement": "Ki", "setting": "Acetylcholinesterase [4]", "result": 210, "unit": "nM"}, {"measurement": "Ki", "setting": "Cholinesterase [5]", "result": 150, "unit": "nM"}, {"measurement": "inhibition", "setting": "Rattus norvegicus", "result": 25, "unit": "%"}, {"measurement": "IC50", "setting": "Acetylcholinesterase [6]", "result": 170, "unit": "nM"}]}, {"smiles": "COc1ccc2cc(C(=O)NCCc3cc[n+](Cc4ccccc4)cc3)ccc2c1.[Br-]", "values": [{"measurement": "Papp", "setting": "[3]", "result": 1.3, "unit": "×10⁻⁶ cm/s"}, {"measurement": "IC50", "setting": "Acetylcholinesterase [1]", "result": 770, "unit": "nM"}, {"measurement": "IC50", "setting": "Cholinesterase [2]", "result": 680, "unit": "nM"}]}, {"smiles": "COc1ccc2cc(C(=O)NCCc3cc[n+](Cc4ccccc4Cl)cc3)ccc2c1", "values": [{"measurement": "IC50", "setting": "Acetylcholinesterase [1]", "result": 500, "unit": "nM"}, {"measurement": "IC50", "setting": "Cholinesterase [2]", "result": 830, "unit": "nM"}]}, {"smiles": "COc1ccc2cc(C(=O)NCCc3cc[n+](Cc4ccccc4C)cc3)ccc2c1", "values": [{"measurement": "IC50", "setting": "Acetylcholinesterase [1]", "result": 1080, "unit": "nM"}, {"measurement": "IC50", "setting": "Cholinesterase [2]", "result": "> 1000", "unit": "nM"}]}, {"smiles": "O=C(Nc1cc[n+](Cc2ccccc2)cc1)c1ccc(-c2ccccc2)cc1", "values": [{"measurement": "IC50", "setting": "Acetylcholinesterase [1]", "result": 770, "unit": "nM"}, {"measurement": "IC50", "setting": "Cholinesterase [2]", "result": "> 1000", "unit": "nM"}]}, {"smiles": "COc1ccc2cc(C(=O)Nc3cc[n+](Cc4ccccc4F)cc3)ccc2c1", "values": [{"measurement": "IC50", "setting": "Acetylcholinesterase [1]", "result": 210, "unit": "nM"}, {"measurement": "IC50", "setting": "Cholinesterase [2]", "result": "> 1000", "unit": "nM"}]}, {"smiles": "COc1ccc2cc(C(=O)NCCc3cc[n+](Cc4ccccc4[N+](=O)[O-])cc3)ccc2c1", "values": [{"measurement": "IC50", "setting": "Acetylcholinesterase [1]", "result": 280, "unit": "nM"}, {"measurement": "IC50", "setting": "Cholinesterase [2]", "result": "> 1000", "unit": "nM"}]}, {"smiles": "COc1ccc2cc(C(=O)Nc3cc[n+](Cc4ccc(Cl)cc4)cc3)ccc2c1", "values": [{"measurement": "IC50", "setting": "Acetylcholinesterase [1]", "result": 900, "unit": "nM"}, {"measurement": "IC50", "setting": "Cholinesterase [2]", "result": "> 1000", "unit": "nM"}]}, {"smiles": "COc1ccc(C(=O)Nc2cc[n+](Cc3ccccc3)cc2)cc1OC", "values": [{"measurement": "IC50", "setting": "Acetylcholinesterase [1]", "result": 420, "unit": "nM"}]}, {"smiles": "COc1cc(OC)cc(C(=O)Nc2cc[n+](Cc3ccccc3)cc2)c1", "values": [{"measurement": "IC50", "setting": "Acetylcholinesterase [1]", "result": 202, "unit": "nM"}]}, {"smiles": "COc1ccc(C(=O)Nc2cc[n+](Cc3ccccc3)cc2)cc1", "values": [{"measurement": "IC50", "setting": "Acetylcholinesterase [1]", "result": 216, "unit": "nM"}]}, {"smiles": "COc1ccc2cc(C(=O)Nc3cc[n+](Cc4ccccc4)cc3)ccc2c1", "values": [{"measurement": "IC50", "setting": "Acetylcholinesterase [1]", "result": 218, "unit": "nM"}, {"measurement": "IC50", "setting": "Cholinesterase [2]", "result": 1590, "unit": "nM"}]}, {"smiles": "COc1ccc2cc(C(=O)NCCc3cc[n+](Cc4ccc([N+](=O)[O-])cc4)cc3)ccc2c1", "values": [{"measurement": "IC50", "setting": "Acetylcholinesterase [1]", "result": 740, "unit": "nM"}, {"measurement": "IC50", "setting": "Cholinesterase [2]", "result": "> 1000", "unit": "nM"}]}, {"smiles": "COc1ccc2cc(C(=O)Nc3cc[n+](Cc4ccc(F)cc4)cc3)ccc2c1", "values": [{"measurement": "IC50", "setting": "Acetylcholinesterase [1]", "result": 210, "unit": "nM"}, {"measurement": "IC50", "setting": "Cholinesterase [2]", "result": "> 1000", "unit": "nM"}]}, {"smiles": "CCOc1ccc(C(=O)Nc2cc[n+](Cc3ccccc3)cc2)cc1", "values": [{"measurement": "IC50", "setting": "Acetylcholinesterase [1]", "result": 201, "unit": "nM"}, {"measurement": "IC50", "setting": "Cholinesterase [2]", "result": 12700, "unit": "nM"}]}, {"smiles": "O=C(Nc1cc[n+](Cc2ccccc2)cc1)c1ccc2cc(Br)ccc2c1", "values": [{"measurement": "IC50", "setting": "Acetylcholinesterase [1]", "result": 1440, "unit": "nM"}]}, {"smiles": "COc1ccc2cc(C(=O)NCCc3cc[n+](Cc4ccc(F)cc4)cc3)ccc2c1", "values": [{"measurement": "IC50", "setting": "Acetylcholinesterase [1]", "result": 740, "unit": "nM"}, {"measurement": "IC50", "setting": "Cholinesterase [2]", "result": "> 1000", "unit": "nM"}]}, {"smiles": "COc1ccc2cc(C(=O)Nc3cc[n+](Cc4ccccc4[N+](=O)[O-])cc3)ccc2c1", "values": [{"measurement": "IC50", "setting": "Acetylcholinesterase [1]", "result": 480, "unit": "nM"}, {"measurement": "IC50", "setting": "Cholinesterase [2]", "result": "> 1000", "unit": "nM"}]}, {"smiles": "O=C(Nc1cc[n+](Cc2ccccc2)cc1)c1ccc(OCc2ccccc2)cc1", "values": [{"measurement": "IC50", "setting": "Acetylcholinesterase [1]", "result": 360, "unit": "nM"}, {"measurement": "IC50", "setting": "Cholinesterase [2]", "result": "> 1000", "unit": "nM"}]}]}
